From ChEMBL document CHEMBL4828709, “Discovery of 2,4-pyrimidinediamine derivatives as potent dual inhibitors of ALK and HDAC” (Eur J Med Chem, 2021)
Calls of active or inactive are those of the source. No cut-off for these calls is given here.

Assays:
HepG2 = experiment: Potency index, ratio of ceritinib IC50 to test compound IC50 for human HepG2 cells assessed as inhibition of cell proliferation measured after 72 hrs by CCK8 assay; type: functional
SH-SY5Y [1] = experiment: Cell cycle arrest in human SH-SY5Y cells assessed as accumulation of cells at G2 phase at 4 uM measured after 24 hrs by PI staining based flowcytometry method (reference value: 13.23%); type: functional
MDA-MB-231 [2] = experiment: Induction of apoptosis in human MDA-MB-231 cells assessed as necrotic cells at 1 uM measured after 24 hrs by Annexin V-FITC/PI staining based flowcytometry (reference value: 0.94%); type: functional
[3] = biological target: T1, ALK tyrosine kinase receptor (Homo sapiens, UniProt Q9UM73); experiment: Inhibition of ALK in human MDA-MB-231 cells assessed as inhibition of Akt phosphorylation at Ser473 residue measured after 24 hrs by Western blot assay; type: cell-based; details: dose 1-4 µM
T1 sequence (Q9UM73 19-1620 limits assumed): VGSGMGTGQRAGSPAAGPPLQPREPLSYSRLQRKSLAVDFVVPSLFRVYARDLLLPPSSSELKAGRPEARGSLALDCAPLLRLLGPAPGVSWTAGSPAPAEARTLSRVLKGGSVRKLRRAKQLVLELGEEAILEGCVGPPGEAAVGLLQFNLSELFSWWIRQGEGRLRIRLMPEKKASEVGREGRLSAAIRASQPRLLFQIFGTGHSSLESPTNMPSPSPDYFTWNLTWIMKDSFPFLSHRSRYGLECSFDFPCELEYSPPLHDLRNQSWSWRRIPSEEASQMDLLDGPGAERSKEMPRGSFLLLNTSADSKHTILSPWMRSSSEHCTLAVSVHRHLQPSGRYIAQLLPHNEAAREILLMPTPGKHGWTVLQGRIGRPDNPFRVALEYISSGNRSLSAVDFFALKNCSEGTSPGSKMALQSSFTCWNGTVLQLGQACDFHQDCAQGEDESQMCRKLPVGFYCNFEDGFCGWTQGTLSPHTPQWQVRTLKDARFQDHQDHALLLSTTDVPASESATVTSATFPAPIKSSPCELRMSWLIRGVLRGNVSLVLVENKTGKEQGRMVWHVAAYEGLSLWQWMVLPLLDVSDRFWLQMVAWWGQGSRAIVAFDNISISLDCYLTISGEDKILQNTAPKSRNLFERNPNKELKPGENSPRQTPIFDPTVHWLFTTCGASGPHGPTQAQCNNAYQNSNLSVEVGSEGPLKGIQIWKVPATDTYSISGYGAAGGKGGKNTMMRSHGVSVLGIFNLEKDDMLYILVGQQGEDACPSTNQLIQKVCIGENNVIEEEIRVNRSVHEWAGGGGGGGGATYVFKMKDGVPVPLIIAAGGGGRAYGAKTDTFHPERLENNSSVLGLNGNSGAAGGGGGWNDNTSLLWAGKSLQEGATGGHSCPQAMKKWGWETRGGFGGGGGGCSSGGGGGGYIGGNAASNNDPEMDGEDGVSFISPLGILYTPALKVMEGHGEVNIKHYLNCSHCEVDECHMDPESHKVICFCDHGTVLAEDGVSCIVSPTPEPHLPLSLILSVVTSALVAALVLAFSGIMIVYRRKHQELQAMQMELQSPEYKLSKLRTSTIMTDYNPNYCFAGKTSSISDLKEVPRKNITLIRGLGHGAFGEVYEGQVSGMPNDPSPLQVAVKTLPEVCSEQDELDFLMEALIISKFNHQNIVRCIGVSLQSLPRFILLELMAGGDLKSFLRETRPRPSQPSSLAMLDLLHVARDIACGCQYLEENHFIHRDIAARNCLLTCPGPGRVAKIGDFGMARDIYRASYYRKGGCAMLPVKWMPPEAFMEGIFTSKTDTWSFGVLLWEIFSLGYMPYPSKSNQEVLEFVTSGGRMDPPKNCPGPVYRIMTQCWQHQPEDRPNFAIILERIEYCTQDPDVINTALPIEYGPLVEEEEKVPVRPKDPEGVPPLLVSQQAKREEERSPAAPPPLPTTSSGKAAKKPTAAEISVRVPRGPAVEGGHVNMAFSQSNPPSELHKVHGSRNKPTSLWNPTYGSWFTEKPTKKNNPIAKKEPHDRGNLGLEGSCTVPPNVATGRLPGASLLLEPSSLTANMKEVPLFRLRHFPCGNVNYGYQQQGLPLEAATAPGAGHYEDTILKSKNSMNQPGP

MDA-MB-231 [4] = experiment: Inhibition of colony formation in human MDA-MB-231 cells at 0.1 to 0.4 uM incubated for 3 days followed by incubation in drug-free medium for 12 days by crystal violet staining based assay; type: functional, cell-based; details: dose 0.1-0.4 µM, time 3.0 day
SH-SY5Y [5] = experiment: Induction of apoptosis in human SH-SY5Y cells assessed as late apoptotic cells at 4 uM measured after 24 hrs by Annexin V-FITC/PI staining based flowcytometry (reference value: 14.32%); type: functional
[6] = biological target: T1, ALK tyrosine kinase receptor; experiment: Inhibition of ALK in human MDA-MB-231 cells assessed as inhibition of ALK phosphorylation at Tyr1278 residue measured after 24 hrs by Western blot assay; type: cell-based; details: dose 1-4 µM
[7] = biological target: T2, Protein deacetylase HDAC6 (Homo sapiens, UniProt Q9UBN7)
T2 sequence (Q9UBN7 whole entry): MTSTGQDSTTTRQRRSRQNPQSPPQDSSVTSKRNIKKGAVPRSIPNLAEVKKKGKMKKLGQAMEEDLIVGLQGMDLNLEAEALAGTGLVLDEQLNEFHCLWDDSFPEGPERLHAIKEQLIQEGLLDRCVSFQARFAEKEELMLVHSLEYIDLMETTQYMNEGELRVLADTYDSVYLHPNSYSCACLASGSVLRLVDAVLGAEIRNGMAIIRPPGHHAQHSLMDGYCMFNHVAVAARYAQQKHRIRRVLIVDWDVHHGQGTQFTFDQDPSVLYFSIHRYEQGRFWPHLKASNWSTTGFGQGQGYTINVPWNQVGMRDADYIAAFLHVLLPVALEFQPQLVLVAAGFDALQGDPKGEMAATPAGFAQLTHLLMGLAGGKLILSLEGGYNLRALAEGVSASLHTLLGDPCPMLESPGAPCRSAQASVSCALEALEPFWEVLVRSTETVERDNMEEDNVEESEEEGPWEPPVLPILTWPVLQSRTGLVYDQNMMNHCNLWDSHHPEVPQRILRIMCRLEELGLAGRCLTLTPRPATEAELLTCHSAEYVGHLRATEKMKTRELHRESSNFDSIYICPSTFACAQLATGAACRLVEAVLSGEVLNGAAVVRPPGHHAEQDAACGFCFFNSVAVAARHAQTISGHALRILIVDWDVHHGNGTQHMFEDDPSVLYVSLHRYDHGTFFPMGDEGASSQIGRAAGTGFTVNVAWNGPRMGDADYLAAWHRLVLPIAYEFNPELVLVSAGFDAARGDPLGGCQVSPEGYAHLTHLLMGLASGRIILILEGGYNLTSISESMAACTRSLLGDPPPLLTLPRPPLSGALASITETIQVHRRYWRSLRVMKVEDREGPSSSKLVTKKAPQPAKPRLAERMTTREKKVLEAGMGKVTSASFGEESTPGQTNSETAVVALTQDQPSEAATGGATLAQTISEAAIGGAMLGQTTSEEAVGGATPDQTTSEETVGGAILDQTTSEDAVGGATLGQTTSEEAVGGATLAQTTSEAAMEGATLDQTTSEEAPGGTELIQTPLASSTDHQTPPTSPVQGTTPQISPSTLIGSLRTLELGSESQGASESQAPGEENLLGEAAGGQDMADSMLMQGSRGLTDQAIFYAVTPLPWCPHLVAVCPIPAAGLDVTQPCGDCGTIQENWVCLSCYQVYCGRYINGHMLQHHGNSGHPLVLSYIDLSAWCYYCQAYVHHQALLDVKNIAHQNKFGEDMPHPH
Description: Inhibition of HDAC6 (unknown origin)

Homo sapiens = organism: Homo sapiens; experiment: Inhibition of human Aurora kinase at 1 uM
MDA-MB-231 [8] = experiment: Induction of apoptosis in human MDA-MB-231 cells assessed as late apoptotic cells at 2 uM measured after 24 hrs by Annexin V-FITC/PI staining based flowcytometry ( Rvb = 5.28%); type: functional
MDA-MB-231 [9] = experiment: Induction of apoptosis in human MDA-MB-231 cells assessed as increase in blue fluorescence intensity at 1 to 4 uM measured after 24 hrs by Hoechst33258 staining based fluorescence microscopy; type: functional, cell-based; details: dose 1-4 µM
[10] = biological target: T1, ALK tyrosine kinase receptor; experiment: Inhibition of ALK in human MDA-MB-231 cells assessed as inhibition of ERK phosphorylation at Thr202/Tyr204 residue at 4 uM measured after 24 hrs by Western blot assay; type: cell-based
[11] = system: ALK tyrosine kinase receptor (Homo sapiens), Q9UM73 [G1202R]; experiment: Potency index, ratio of ceritinib IC50 to test compound IC50 for inhibition of ALK G1202R mutant (unknown origin)
Sequence of ALK tyrosine kinase receptor (Homo sapiens), Q9UM73 [G1202R] (Q9UM73 whole entry G1202R): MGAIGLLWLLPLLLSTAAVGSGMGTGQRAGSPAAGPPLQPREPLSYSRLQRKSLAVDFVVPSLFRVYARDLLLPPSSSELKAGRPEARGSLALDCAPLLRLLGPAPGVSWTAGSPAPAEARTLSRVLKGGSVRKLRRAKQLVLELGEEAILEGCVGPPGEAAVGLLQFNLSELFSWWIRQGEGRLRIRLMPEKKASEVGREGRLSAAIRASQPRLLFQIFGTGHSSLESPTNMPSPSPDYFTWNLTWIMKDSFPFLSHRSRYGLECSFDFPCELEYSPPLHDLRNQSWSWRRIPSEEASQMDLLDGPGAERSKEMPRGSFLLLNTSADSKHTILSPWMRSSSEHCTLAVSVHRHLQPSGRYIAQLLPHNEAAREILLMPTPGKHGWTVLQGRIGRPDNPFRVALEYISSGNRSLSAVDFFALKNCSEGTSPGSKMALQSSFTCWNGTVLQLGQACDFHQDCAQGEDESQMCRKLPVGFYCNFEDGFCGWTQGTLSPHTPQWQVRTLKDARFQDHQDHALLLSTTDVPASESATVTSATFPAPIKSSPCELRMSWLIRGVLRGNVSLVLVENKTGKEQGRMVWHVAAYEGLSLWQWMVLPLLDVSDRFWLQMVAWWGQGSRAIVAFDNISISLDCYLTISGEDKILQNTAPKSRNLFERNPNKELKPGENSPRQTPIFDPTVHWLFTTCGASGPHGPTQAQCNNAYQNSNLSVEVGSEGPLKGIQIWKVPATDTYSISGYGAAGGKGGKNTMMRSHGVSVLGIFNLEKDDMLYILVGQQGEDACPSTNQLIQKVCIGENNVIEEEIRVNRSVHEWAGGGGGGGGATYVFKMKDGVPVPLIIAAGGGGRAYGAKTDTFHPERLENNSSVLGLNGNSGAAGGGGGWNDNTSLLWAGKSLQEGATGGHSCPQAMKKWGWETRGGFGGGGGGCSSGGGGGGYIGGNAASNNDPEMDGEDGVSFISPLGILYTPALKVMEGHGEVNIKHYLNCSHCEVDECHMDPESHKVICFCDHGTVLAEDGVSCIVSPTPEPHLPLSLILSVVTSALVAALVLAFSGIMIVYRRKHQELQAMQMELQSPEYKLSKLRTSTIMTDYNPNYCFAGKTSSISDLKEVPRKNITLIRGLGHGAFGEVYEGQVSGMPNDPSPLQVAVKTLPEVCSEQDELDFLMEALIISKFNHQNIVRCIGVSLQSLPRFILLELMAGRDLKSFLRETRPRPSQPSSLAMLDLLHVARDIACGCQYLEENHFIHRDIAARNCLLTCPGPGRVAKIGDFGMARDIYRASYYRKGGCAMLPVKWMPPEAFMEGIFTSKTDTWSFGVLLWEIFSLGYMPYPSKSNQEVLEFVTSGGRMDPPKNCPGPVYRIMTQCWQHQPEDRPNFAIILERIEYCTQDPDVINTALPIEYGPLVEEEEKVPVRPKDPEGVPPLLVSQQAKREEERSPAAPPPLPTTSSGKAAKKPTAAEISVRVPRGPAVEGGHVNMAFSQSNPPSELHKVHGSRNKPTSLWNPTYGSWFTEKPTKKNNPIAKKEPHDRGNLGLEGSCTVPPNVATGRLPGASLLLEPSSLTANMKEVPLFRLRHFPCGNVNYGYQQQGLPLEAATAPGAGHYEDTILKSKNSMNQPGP

MDA-MB-231 [12] = experiment: Induction of apoptosis in human MDA-MB-231 cells assessed as necrotic cells at 4 uM measured after 24 hrs by Annexin V-FITC/PI staining based flowcytometry (reference value: 0.98%); type: functional
Histone deacetylase 1 = Histone deacetylase 1 (Homo sapiens, UniProt Q13547); details: Sf9, dose 10.0 nM, time 15.0 min
Sequence of Histone deacetylase 1 (Q13547 whole entry): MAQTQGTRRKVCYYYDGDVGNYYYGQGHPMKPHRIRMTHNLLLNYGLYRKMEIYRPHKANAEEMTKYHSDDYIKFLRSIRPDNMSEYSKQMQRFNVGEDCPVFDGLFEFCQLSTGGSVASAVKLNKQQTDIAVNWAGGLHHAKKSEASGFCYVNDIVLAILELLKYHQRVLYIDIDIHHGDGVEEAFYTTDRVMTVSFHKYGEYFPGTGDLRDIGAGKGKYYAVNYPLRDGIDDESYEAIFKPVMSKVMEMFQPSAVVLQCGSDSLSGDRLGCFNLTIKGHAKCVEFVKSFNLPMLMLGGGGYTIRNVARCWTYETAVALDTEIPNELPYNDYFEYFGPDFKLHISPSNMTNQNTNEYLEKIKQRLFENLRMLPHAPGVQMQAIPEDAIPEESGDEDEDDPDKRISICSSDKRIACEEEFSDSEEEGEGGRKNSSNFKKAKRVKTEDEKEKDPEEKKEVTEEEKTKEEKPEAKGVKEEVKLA

[13] = biological target: T1, ALK tyrosine kinase receptor; experiment: Inhibition of human ALK in human SH-SY5Y cells assessed as inhibition of Akt phosphorylation at Ser473 residue at 4 uM measured after 24 hrs by Western blot assay; type: cell-based
MDA-MB-231 [14] = experiment: Induction of apoptosis in human MDA-MB-231 cells assessed as viable cells at 4 uM measured after 24 hrs by Annexin V-FITC/PI staining based flowcytometry (reference value: 93.14%); type: functional; details: read-out: Activity
A549 = experiment: Potency index, ratio of crizotinib IC50 to test compound IC50 for human A549 cells assessed as inhibition of cell proliferation measured after 72 hrs by CCK8 assay; type: functional
MDA-MB-231 [15] = experiment: Potency index, ratio of ceritinib IC50 to test compound IC50 for human MDA-MB-231 cells assessed as inhibition of cell proliferation measured after 72 hrs by CCK8 assay; type: functional
[16] = biological target: T1, ALK tyrosine kinase receptor; experiment: Inhibition of human ALK in human SH-SY5Y cells assessed as inhibition of Akt phosphorylation at Ser473 residue measured after 24 hrs by Western blot assay; type: cell-based; details: dose 1-4 µM
NCI-H2228 = experiment: Potency index, ratio of ceritinib IC50 to test compound IC50 for human NCI-H2228 cells harboring EML4/ALK […] assessed as inhibition of cell proliferation measured after 72 hrs by CCK8 assay; type: functional
[17] = biological target: ALK tyrosine kinase receptor (Homo sapiens, UniProt Q9UM73, G1202R)
Sequence of ALK tyrosine kinase receptor (Homo sapiens, UniProt Q9UM73, G1202R) (Q9UM73 19-1620 G1202R limits assumed): as the sequence (Q9UM73 19-1620 limits assumed) above, with G1184R counted along it

inhibition [3]: Dose-Dependent Effect | inhibition [6]: Dose-Dependent Effect | IC50 [7]: 4.4 nM | inhibition (Homo sapiens): 95% | inhibition [10]: Active | Ratio IC50 [11]: 10 | inhibition (Histone deacetylase 1): 54% | inhibition [13]: Active | inhibition [16]: Dose-Dependent Effect | IC50 [17]: 0.4 nM
SMILES: CC(C)S(=O)(=O)c1ccccc1Nc1nc(Nc2ccc(NC(=O)CCCCCCC(=O)NO)cc2)ncc1Cl
Ratio IC50 (HepG2): 3 | Activity (SH-SY5Y [1]): 88.07% | Activity (MDA-MB-231 [2]): 1.36% | inhibition (MDA-MB-231 [4]): Active | Activity (SH-SY5Y [5]): 45.5% | Activity (MDA-MB-231 [8]): 7.72% | Activity (MDA-MB-231 [9]): Active | Activity (MDA-MB-231 [12]): 3.86% | viability at 4 µM (MDA-MB-231 [14]): 76.9% | Ratio IC50 (A549): 3 | Ratio IC50 (MDA-MB-231 [15]): 3 | Ratio IC50 (NCI-H2228): 3
